Laboratory results taken from the supplement of paper PMC11208160.

Experiment: recombinant barcode read abundance after kanamycin selection (control-corrected) (log10(CPM+1)); higher = more efficient recombination; sequences stand for … in AGTGCAGAGAAAATCGGCCAGTTTTCTCTGCCTGCAGTCCGCATGCCGT…AGATTTATGCAGCGGACTGCCTTTCTCCCAAAGTGATAAACCGGACAGTATCATGGACCGGTTTTCCCGGTAATCCGTATTTGCAAGGTTGGTTTCACT; site = the 11-nt target
Method in brief: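 Two replicates per condition were plated: chloramphenicol/ampicillin LB agar for the control, and chloramphenicol/ampicillin/kanamycin with 0.1 mM IPTG for selection. The pooled E. coli screen behind them paired targets with IS621 bridge RNA target-binding loops. Recombination efficiency is expressed from averaged, control-corrected barcode counts per million at recombinant junctions, as log10(CPM+1).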
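Further: IS621 recombinase and bridge RNA in Escherichia coli cells.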

Sequence	recombinant barcode read abundance (log10)
CTAATAGCTTGGGTTCTAACCTGTTGCCA (site AGTCCGTCTAT)	0.186
CTAATAGCTTGGGTTCTAACCTGTTGCCA (site CTAATAGCTTG)	0.262
CTAATGACTTGGGTTCTAACCTGTTGCAC (site CTAATGACTGT)	1.43
CTAATGACTTGGGTTCTAACCTGTTGCAC (site CTAATGCCTAT)	0.227
CTAATGCCTTGGGTTCTAACCTGTTGCAT (site CTAATGACTGT)	0.0624
CTAATGCCTTGGGTTCTAACCTGTTGCAT (site CTAATGCCTAT)	0.175
CTAATTACTTGGGTTCTAACCTGTTGCAC (site CTAATTACTGT)	0.249
CTAATTACTTGGGTTCTAACCTGTTGCAC (site GTAACTACTGT)	0.114
CTAATTACTTGGGTTCTAACCTGTTGCCT (site CTAATTACTAG)	0.946
CTAATTACTTGGGTTCTAACCTGTTGCCT (site CTACTTACTAG)	0.0931
CTAATTACTTGGGTTCTAACCTGTTGCCT (site CTAGTTACTAG)	0.159
CTAATTACTTGGGTTCTAACCTGTTGCCT (site CTATTTACTAG)	0.196
CTAATTCCTTGGGTTCTAACCTGTTGCAT (site CTAAATCCTAT)	0.0881
CTAATTCCTTGGGTTCTAACCTGTTGCAT (site CTAACTCCTAT)	0.0994
CTAATTCCTTGGGTTCTAACCTGTTGCAT (site CTAAGTCCTAT)	0.0341
CTAATTCCTTGGGTTCTAACCTGTTGCAT (site CTAATTCCTAT)	0.252
CTACACTCTTGGGTTCTAACCTGTTGCCT (site CAACACTCTAG)	1.07
CTACACTCTTGGGTTCTAACCTGTTGCCT (site CCACACTCTAG)	0.409
CTACACTCTTGGGTTCTAACCTGTTGCCT (site CGACACTCTAG)	0.28
CTACACTCTTGGGTTCTAACCTGTTGCCT (site CTACACTCTAG)	2.18
CTACAGCCTTGGGTTCTAACCTGTTGCTT (site CTACAACCTAA)	0.636
CTACAGCCTTGGGTTCTAACCTGTTGCTT (site CTACACCCTAA)	0.0559

Sequence	recombinant barcode read abundance (log10)
CTACAGCCTTGGGTTCTAACCTGTTGCTT (site CTACAGCCTAA)	0.798
CTACAGCCTTGGGTTCTAACCTGTTGCTT (site CTACATCCTAA)	0.0933
CTACCAACTTGGGTTCTAACCTGTTGCCT (site CTACCAACTAG)	0.41
CTACCAACTTGGGTTCTAACCTGTTGCCT (site CTACCACCTAG)	0.0179
CTACCAACTTGGGTTCTAACCTGTTGCCT (site CTACCAGCTAG)	0.124
CTACCAACTTGGGTTCTAACCTGTTGCCT (site CTACCATCTAG)	0.0148
CTACCAGCTTGGGTTCTAACCTGTTGCCT (site CTACCAACTAG)	0.191
CTACCAGCTTGGGTTCTAACCTGTTGCCT (site CTACCACCTAG)	0.0143
CTACCAGCTTGGGTTCTAACCTGTTGCCT (site CTACCAGCTAG)	1.17
CTACCAGCTTGGGTTCTAACCTGTTGCCT (site CTACCATCTAG)	0.0991
CTACCATCTTGGGTTCTAACCTGTTGCCG (site CTACCATCTCG)	0.255
CTACCATCTTGGGTTCTAACCTGTTGCCG (site CTACCGTCTCC)	0.157
CTACCCTCTTGGGTTCTAACCTGTTGCAT (site CTAACCTCTAT)	0.026
CTACCCTCTTGGGTTCTAACCTGTTGCAT (site CTACCCTCTAT)	2.87
CTACCCTCTTGGGTTCTAACCTGTTGCAT (site CTAGCCTCTAT)	0.0456
CTACCCTCTTGGGTTCTAACCTGTTGCAT (site CTATCCTCTAT)	0.413
CTACCTTCTTGGGTTCTAACCTGTTGCCT (site CAACCTTCTAG)	0.203
CTACCTTCTTGGGTTCTAACCTGTTGCCT (site CTACCTTCTAG)	1.37
CTACGGACTTGGGTTCTAACCTGTTGCTG (site CTACGAACTCA)	1.82
CTACGGACTTGGGTTCTAACCTGTTGCTG (site CTACGCACTCA)	0.206
CTACGGACTTGGGTTCTAACCTGTTGCTG (site CTACGGACTCA)	2.77
CTACGGACTTGGGTTCTAACCTGTTGCTG (site CTACGTACTCA)	0.0171

Sequence	recombinant barcode read abundance (log10)
CTACGTACTTGGGTTCTAACCTGTTGCCT (site ATACGTACTAG)	0.00899
CTACGTACTTGGGTTCTAACCTGTTGCCT (site CTACGTACTAG)	1.3
CTACGTACTTGGGTTCTAACCTGTTGCCT (site GTACGTACTAG)	0.0661
CTACGTACTTGGGTTCTAACCTGTTGCCT (site TTACGTACTAG)	0.0415
CTACGTACTTGGGTTCTAACCTGTTGCTG (site CTACGAACTCA)	0.0136
CTACGTACTTGGGTTCTAACCTGTTGCTG (site CTACGCACTCA)	0.138
CTACGTACTTGGGTTCTAACCTGTTGCTG (site CTACGGACTCA)	0.0671
CTACGTACTTGGGTTCTAACCTGTTGCTG (site CTACGTACTCA)	1.75
CTACTAACTTGGGTTCTAACCTGTTGCCT (site CTACTAACTAA)	0.0105
CTACTAACTTGGGTTCTAACCTGTTGCCT (site CTACTAACTAC)	0.0952
CTACTAACTTGGGTTCTAACCTGTTGCCT (site CTACTAACTAG)	1.3
CTACTAACTTGGGTTCTAACCTGTTGCCT (site CTACTAACTAT)	0.182
CTACTAGCTTGGGTTCTAACCTGTTGCAC (site CTACTAGCTAT)	0.0299
CTACTAGCTTGGGTTCTAACCTGTTGCAC (site CTACTAGCTCT)	0.433
CTACTAGCTTGGGTTCTAACCTGTTGCAC (site CTACTAGCTGT)	1.66
CTACTAGCTTGGGTTCTAACCTGTTGCAC (site CTACTAGCTTT)	0.727
CTACTTACTTGGGTTCTAACCTGTTGCCT (site CTAATTACTAG)	0.0298
CTACTTACTTGGGTTCTAACCTGTTGCCT (site CTACTTACTAG)	0.741
CTACTTACTTGGGTTCTAACCTGTTGCCT (site CTAGTTACTAG)	0
CTACTTACTTGGGTTCTAACCTGTTGCCT (site CTATTTACTAG)	0.1
CTAGAAGCTTGGGTTCTAACCTGTTGCGG (site CTAGAAGCTCC)	1.31
CTAGAAGCTTGGGTTCTAACCTGTTGCGG (site CTGGAACCTCC)	0.401

Sequence	recombinant barcode read abundance (log10)
CTAGACTCTTGGGTTCTAACCTGTTGCTA (site CTAGACTCTAA)	0.587
CTAGACTCTTGGGTTCTAACCTGTTGCTA (site CTAGACTCTCA)	0.234
CTAGACTCTTGGGTTCTAACCTGTTGCTA (site CTAGACTCTGA)	0.117
CTAGACTCTTGGGTTCTAACCTGTTGCTA (site CTAGACTCTTA)	2.7
CTAGAGTCTTGGGTTCTAACCTGTTGCTT (site CTAGAGTCTAA)	2.66
CTAGAGTCTTGGGTTCTAACCTGTTGCTT (site CTAGCGTCTAA)	0.0496
CTAGATTCTTGGGTTCTAACCTGTTGCCT (site CAAGATTCTAG)	0.167
CTAGATTCTTGGGTTCTAACCTGTTGCCT (site CCAGATTCTAG)	0.116
CTAGATTCTTGGGTTCTAACCTGTTGCCT (site CGAGATTCTAG)	0.077
CTAGATTCTTGGGTTCTAACCTGTTGCCT (site CTAGATTCTAG)	1.49
CTAGCCGCTTGGGTTCTAACCTGTTGCTT (site AGCCTATCTTG)	0.119
CTAGCCGCTTGGGTTCTAACCTGTTGCTT (site CTAGCCGCTAA)	1.03
CTAGCGGCTTGGGTTCTAACCTGTTGCAG (site CTAGCGGCTCT)	2.05
CTAGCGGCTTGGGTTCTAACCTGTTGCAG (site CTAGCTCCTCT)	0.0734
CTAGGCCCTTGGGTTCTAACCTGTTGCCT (site CTAGGCCCTAA)	0.584
CTAGGCCCTTGGGTTCTAACCTGTTGCCT (site CTAGGCCCTAC)	2.1
CTAGGCCCTTGGGTTCTAACCTGTTGCCT (site CTAGGCCCTAG)	0.184
CTAGGCCCTTGGGTTCTAACCTGTTGCCT (site CTAGGCCCTAT)	0.506
CTAGGCCCTTGGGTTCTAACCTGTTGCTT (site CTAGGCCCTAA)	0.563
CTAGGCCCTTGGGTTCTAACCTGTTGCTT (site CTAGGCCCTAC)	0.18
